ChEMBL document CHEMBL5465560, “Selectivity Literature for EUbOPEN Chemogenomic Library” (2024)

Legend:
[1] = target: Phosphatidylinositol 4-phosphate 3-kinase C2 domain-containing subunit beta (Homo sapiens) (UniProt O00750); experiment: Selectivity interaction (KinomeScan (DiscoverX)) EUB0001049a PIK3C2B; conditions: at 1 µM
[2] = target: Cyclin-dependent kinase 8 (Homo sapiens, UniProt P49336); experiment: Selectivity interaction (Ambit KINOMEscan and KiNATiv profiling in Jurkat cells) EUB0000090b CDK8; type: cell-based; conditions: at 1 µM
[3] = target: Muscarinic acetylcholine receptor M2 (Homo sapiens, UniProt P08172); experiment: Selectivity interaction (Muscarinic M2 Calcium flux assay, agonist and antagonist mode ) EUB0000877a CHRM2
[4] = target: Ribosomal protein S6 kinase alpha-2 (Homo sapiens) (UniProt Q15349); conditions: at 10 µM
[5] = target: Serine/threonine-protein kinase PLK1 (Homo sapiens, UniProt P53350); experiment: Selectivity interaction (KinomeScan (DiscoverX)) EUB0000229b PLK1; conditions: at 10 µM
[6] = target: Interleukin-1 receptor-associated kinase 1 (Homo sapiens) (UniProt P51617); experiment: Selectivity interaction (KinomeScan (DiscoverX)) EUB0001079a IRAK1; conditions: at 1 µM
[7] = target: Protein kinase C gamma type (Homo sapiens) (UniProt P05129); experiment: Selectivity interaction (ProQinase) EUB0000171b PRKCG
[8] = test system: Tyrosine-protein kinase ABL1 (Homo sapiens), P00519 [E255K]; experiment: (§1) Selectivity interaction (KinomeScan (DiscoverX)) EUB0000607a ABL1; conditions: at 10 µM
[9] = test system: Tyrosine-protein kinase ABL1 (Homo sapiens), P00519 [F317I]; experiment: as §1; conditions: at 10 µM
[10] = test system: Tyrosine-protein kinase ABL1 (Homo sapiens), P00519 [F317L]; experiment: as §1; conditions: at 10 µM
[11] = test system: Tyrosine-protein kinase ABL1 (Homo sapiens), P00519 [H396P]; experiment: as §1; conditions: at 10 µM
[12] = test system: Tyrosine-protein kinase ABL1 (Homo sapiens), P00519 [M351T]; experiment: as §1; conditions: at 10 µM
[13] = test system: Tyrosine-protein kinase ABL1 (Homo sapiens), P00519 [Q252H]; experiment: as §1; conditions: at 10 µM
[14] = test system: Tyrosine-protein kinase ABL1 (Homo sapiens), P00519 [T315I]; experiment: as §1; conditions: at 10 µM
[15] = test system: Tyrosine-protein kinase ABL1 (Homo sapiens), P00519 [Y253F]; experiment: as §1; conditions: at 10 µM
[16] = target: Tyrosine-protein kinase ABL1 (Homo sapiens, UniProt P00519); experiment: as §1; conditions: at 10 µM
[17] = target: T1, Cyclin-dependent kinase 11A (Homo sapiens) (UniProt Q9UQ88); experiment: Selectivity interaction (KinomeScan (DiscoverX)) EUB0000666a CDK11A; conditions: at 10 µM
T1 sequence (whole entry): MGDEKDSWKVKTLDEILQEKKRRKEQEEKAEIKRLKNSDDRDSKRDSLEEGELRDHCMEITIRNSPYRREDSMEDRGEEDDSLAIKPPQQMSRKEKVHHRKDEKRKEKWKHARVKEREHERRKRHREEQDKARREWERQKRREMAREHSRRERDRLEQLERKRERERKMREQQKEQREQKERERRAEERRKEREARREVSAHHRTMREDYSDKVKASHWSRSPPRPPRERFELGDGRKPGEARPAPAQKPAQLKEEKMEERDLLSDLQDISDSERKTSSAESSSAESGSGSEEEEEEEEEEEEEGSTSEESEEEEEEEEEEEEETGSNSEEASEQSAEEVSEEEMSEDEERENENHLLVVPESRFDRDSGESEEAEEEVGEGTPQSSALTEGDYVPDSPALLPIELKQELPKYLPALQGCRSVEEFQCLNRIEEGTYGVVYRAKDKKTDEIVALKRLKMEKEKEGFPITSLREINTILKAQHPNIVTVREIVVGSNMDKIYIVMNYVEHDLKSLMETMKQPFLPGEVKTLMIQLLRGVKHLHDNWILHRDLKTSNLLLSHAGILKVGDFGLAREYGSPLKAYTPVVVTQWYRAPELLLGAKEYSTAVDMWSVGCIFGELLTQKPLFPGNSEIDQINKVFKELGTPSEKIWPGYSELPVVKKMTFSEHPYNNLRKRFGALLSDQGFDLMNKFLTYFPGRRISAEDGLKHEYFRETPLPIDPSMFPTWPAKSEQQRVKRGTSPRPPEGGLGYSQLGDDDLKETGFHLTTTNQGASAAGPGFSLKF

[18] = target: Vascular endothelial growth factor receptor 2 (Homo sapiens, UniProt P35968); experiment: Selectivity interaction (KinomeScan (DiscoverX)) EUB0000666a KDR; conditions: at 10 µM
[19] = target: T2, Protein kinase C epsilon type (Homo sapiens) (UniProt Q02156); experiment: Selectivity interaction (KinomeScan (DiscoverX)) EUB0000666a PRKCE; conditions: at 10 µM
T2 sequence (whole entry): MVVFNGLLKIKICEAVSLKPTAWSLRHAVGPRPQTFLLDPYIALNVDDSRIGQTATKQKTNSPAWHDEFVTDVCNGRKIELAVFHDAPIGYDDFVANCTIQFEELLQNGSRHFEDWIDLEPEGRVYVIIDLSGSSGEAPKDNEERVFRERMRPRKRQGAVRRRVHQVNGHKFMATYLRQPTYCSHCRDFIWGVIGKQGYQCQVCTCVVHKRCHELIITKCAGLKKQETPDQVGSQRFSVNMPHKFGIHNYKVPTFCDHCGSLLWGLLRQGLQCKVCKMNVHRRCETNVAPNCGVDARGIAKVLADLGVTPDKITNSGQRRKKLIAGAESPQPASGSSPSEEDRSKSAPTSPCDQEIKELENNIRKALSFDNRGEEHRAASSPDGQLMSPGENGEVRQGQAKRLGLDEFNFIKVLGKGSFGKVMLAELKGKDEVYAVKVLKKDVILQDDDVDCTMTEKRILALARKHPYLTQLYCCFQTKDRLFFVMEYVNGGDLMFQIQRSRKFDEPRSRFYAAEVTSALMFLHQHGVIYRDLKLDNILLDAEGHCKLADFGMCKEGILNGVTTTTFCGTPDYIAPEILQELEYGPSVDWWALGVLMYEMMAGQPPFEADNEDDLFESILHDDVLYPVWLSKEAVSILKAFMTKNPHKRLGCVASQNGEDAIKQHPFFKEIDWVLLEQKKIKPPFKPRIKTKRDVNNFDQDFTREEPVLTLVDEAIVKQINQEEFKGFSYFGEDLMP

Ribosomal protein S6 kinase alpha-2 (Homo sapiens), sequence (Q15349 whole entry): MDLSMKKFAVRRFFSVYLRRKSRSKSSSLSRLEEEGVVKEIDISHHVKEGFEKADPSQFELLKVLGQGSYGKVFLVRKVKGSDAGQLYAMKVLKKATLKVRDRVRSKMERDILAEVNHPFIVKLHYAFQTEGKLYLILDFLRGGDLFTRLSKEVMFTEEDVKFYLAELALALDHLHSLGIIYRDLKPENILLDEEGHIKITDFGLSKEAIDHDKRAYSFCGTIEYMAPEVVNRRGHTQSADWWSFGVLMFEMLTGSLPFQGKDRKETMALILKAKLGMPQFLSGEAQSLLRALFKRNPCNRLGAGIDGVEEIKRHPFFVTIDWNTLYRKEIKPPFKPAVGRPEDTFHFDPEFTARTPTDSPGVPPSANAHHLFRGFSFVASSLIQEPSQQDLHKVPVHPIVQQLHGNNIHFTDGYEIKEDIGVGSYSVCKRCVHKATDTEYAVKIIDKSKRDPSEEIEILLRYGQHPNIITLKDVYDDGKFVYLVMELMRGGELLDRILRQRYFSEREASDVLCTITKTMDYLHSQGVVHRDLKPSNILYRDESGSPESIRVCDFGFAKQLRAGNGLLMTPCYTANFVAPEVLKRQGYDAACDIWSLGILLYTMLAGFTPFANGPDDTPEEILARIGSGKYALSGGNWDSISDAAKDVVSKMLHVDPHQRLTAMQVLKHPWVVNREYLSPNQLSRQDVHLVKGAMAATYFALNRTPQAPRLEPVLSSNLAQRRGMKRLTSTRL
Interleukin-1 receptor-associated kinase 1 (Homo sapiens), sequence (P51617 whole entry, looked up): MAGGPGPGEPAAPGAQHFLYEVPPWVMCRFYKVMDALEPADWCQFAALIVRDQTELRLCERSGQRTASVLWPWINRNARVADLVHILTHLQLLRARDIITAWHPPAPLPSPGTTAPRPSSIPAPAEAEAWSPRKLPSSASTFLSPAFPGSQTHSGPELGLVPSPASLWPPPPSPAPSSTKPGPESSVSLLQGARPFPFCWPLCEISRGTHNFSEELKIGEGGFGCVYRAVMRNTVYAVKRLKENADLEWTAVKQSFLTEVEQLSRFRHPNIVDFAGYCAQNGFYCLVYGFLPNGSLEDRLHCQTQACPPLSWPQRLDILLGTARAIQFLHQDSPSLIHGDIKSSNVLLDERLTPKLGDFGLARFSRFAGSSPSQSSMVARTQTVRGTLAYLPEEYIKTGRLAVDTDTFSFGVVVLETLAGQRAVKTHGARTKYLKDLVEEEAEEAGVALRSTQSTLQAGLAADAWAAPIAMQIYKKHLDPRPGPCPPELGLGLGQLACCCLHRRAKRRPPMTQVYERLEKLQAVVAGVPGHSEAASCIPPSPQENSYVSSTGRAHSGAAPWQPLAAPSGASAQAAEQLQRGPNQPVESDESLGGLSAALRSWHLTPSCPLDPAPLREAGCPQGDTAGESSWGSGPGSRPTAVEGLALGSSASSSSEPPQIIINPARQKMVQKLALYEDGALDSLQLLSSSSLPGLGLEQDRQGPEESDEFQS
Phosphatidylinositol 4-phosphate 3-kinase C2 domain-containing subunit beta (Homo sapiens), sequence (O00750 whole entry, the tested form may be a part): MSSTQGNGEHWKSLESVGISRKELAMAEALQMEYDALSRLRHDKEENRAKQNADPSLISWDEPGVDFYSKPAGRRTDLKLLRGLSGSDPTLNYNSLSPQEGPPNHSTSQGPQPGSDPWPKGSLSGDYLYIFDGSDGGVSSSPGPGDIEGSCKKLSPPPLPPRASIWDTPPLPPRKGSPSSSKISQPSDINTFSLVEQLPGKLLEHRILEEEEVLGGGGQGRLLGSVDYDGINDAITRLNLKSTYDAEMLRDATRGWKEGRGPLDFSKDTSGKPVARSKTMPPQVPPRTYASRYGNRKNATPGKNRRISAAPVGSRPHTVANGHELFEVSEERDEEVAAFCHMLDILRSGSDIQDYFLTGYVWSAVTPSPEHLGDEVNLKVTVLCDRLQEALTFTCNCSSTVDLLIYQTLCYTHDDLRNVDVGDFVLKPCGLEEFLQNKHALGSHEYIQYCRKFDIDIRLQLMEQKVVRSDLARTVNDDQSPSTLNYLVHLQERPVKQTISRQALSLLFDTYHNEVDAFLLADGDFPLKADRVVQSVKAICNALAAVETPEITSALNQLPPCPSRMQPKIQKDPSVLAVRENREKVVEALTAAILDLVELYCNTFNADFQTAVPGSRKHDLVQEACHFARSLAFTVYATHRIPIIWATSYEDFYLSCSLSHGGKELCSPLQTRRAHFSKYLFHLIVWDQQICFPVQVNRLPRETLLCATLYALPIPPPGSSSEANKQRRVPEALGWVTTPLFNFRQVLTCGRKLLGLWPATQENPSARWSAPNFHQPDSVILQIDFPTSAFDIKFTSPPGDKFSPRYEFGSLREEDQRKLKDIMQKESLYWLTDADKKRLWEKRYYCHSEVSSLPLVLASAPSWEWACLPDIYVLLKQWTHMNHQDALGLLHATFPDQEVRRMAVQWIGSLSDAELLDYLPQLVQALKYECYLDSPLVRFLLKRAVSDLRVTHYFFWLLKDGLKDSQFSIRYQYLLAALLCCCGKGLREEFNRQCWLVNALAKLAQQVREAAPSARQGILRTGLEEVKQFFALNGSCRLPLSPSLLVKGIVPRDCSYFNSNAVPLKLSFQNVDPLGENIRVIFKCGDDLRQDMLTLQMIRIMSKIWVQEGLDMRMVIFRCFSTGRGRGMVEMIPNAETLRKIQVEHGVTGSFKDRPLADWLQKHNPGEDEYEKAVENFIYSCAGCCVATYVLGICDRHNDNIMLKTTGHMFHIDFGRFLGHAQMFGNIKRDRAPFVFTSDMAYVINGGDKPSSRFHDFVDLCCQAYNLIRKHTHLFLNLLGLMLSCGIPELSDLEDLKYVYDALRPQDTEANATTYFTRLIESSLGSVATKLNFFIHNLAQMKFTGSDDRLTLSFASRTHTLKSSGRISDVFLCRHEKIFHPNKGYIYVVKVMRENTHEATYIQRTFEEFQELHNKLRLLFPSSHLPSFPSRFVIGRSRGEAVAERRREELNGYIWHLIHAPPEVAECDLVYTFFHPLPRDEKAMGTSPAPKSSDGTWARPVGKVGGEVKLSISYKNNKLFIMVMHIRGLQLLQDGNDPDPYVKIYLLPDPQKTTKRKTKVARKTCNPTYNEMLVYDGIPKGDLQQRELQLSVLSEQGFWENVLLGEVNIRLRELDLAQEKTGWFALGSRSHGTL
Muscarinic acetylcholine receptor M2, sequence (P08172 whole entry): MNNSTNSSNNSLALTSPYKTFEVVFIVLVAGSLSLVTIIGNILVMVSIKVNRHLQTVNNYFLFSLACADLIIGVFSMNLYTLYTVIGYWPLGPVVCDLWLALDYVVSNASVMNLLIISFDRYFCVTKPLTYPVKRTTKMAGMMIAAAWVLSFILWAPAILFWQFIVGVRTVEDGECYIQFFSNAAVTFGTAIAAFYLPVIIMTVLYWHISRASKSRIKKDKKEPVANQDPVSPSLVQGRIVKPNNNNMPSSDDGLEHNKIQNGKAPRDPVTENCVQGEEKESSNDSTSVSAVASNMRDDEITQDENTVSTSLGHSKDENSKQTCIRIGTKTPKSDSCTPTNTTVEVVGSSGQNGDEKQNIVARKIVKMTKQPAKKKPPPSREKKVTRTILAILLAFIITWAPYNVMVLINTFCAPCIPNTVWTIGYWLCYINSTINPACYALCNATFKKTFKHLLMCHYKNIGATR
Serine/threonine-protein kinase PLK1, sequence (P53350 whole entry): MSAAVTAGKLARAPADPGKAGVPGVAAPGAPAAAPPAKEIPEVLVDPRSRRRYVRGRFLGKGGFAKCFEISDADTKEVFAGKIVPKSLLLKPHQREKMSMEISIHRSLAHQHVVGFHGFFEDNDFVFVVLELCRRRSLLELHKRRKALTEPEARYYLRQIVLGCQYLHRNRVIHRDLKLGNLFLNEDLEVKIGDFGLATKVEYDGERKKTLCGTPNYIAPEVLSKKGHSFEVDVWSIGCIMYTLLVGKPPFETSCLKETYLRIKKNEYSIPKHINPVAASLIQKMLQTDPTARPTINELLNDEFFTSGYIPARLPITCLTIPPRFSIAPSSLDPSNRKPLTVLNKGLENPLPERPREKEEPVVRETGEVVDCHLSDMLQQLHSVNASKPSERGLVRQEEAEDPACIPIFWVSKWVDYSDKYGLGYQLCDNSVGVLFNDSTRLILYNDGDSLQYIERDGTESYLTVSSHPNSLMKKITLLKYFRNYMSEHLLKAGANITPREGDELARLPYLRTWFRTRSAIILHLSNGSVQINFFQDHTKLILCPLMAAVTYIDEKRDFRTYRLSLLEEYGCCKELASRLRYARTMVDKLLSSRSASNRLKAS

COc1cc(Nc2nc(C)cc(-c3cnn4nc(OC)ccc34)n2)cc(C(F)(F)F)c1
% of control [1]: 100%

CN(C)C/C=C/C(=O)Nc1ccc(C(=O)N2CCCC(Nc3ncc(Cl)c(-c4c[nH]c5ccccc45)n3)C2)cc1 (stereo not given)
% of control [2]: 100%

CCC(=O)N1CC[C@H](Nc2ncnc3c2CN(c2cnc(OC)c(C(F)(F)F)c2)CC3)C1 [LENIOLISIB]
IC50 [3]: > 30 µM

CCN(CC)CCCCNc1ncc2cc(-c3cc(OC)cc(OC)c3)c(NC(=O)NC(C)(C)C)nc2n1
% of control [4]: 100%

COc1cc(N(C)c2ccnc3ccc(C(F)(F)F)cc23)cc(OC)c1OC
% binding [5]: 100%

Nc1cnc(N2CCc3cc(S(=O)(=O)Nc4c(F)cc(Cl)cc4F)cc(N4CCCC4=O)c32)nc1 [TP-020n]
% of control [6]: 100%

C=CC(=O)Nc1cccc(C(=O)Nc2ccc(Nc3cc(-c4[nH]c(SC)nc4C)ccn3)cc2)c1
% of control ([7]; at 1 µM): 88% | % of control ([7]; at 5 µM): 100%

CNC(=O)Nc1ccc(-c2nc(N3CC4CCC(C3)O4)c3cnn(C4CCC5(CC4)OCCO5)c3n2)cc1
% of control [8]: 100% | % of control [9]: 100% | % of control [10]: 100% | % of control [11]: 100% | % of control [12]: 100% | % of control [13]: 100% | % of control [14]: 83% | % of control [15]: 99% | % of control [16]: 100%

O=C(NOC[C@H](O)CO)c1ccc(F)c(F)c1Nc1ccc(I)cc1F
% of control [17]: 100% | % of control [18]: 84% | % of control [19]: 100%
